Measurements from PubChem BioAssay (NCI).
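Exposure lasted 48 hours, with cells grown in 96-well plates and compounds tested at five concentrations. Here, GI50 denotes the concentration required for 50% inhibition of growth. At the TGI there is no net growth.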

Experiments:
Assay in all cases: NCI anticancer screen, dose series, 48 h
NCI-H23 lung = test system: NCI-H23 lung
KM12 colon = test system: KM12 colon
UACC-257 melanoma = test system: UACC-257 melanoma
HCT-15 colon = test system: HCT-15 colon
CAKI-1 renal = test system: CAKI-1 renal
ACHN renal = test system: ACHN renal
OVCAR-4 ovarian = test system: OVCAR-4 ovarian
HOP-62 NSCLC = test system: HOP-62 NSCLC
NCI/ADR-RES ovarian = test system: NCI/ADR-RES ovarian
MCF7 breast = test system: MCF7 breast

SMILES | TGI (NCI-H23 lung) [µM] | TGI (KM12 colon) [µM] | TGI (UACC-257 melanoma) [µM] | TGI (HCT-15 colon) [µM] | TGI (CAKI-1 renal) [µM] | TGI (ACHN renal) [µM] | TGI (OVCAR-4 ovarian) [µM] | TGI (HOP-62 NSCLC) [µM] | GI50 (NCI-H23 lung) [µM] | GI50 (KM12 colon) [µM] | GI50 (UACC-257 melanoma) [µM] | GI50 (HCT-15 colon) [µM] | GI50 (ACHN renal) [µM] | GI50 (NCI/ADR-RES ovarian) [µM] | TGI (NCI/ADR-RES ovarian) [µM] | GI50 (OVCAR-4 ovarian) [µM] | GI50 (HOP-62 NSCLC) [µM] | GI50 (MCF7 breast) [µM] | TGI (MCF7 breast) [µM] | GI50 (CAKI-1 renal) [µM]
CC(=O)N1CCN(C=S)CC1 | > 100 | > 100 | > 100 | > 100 | > 100 | > 100 | > 100 | > 100 | – | – | – | – | – | – | – | – | – | – | – | –
N#CC12CC3(CCC1CCC1(C2)OCCO1)OCCO3 (stereo not given) | > 100 | > 100 | > 100 | > 100 | > 100 | > 100 | > 100 | > 100 | – | – | – | – | – | – | – | – | – | – | – | –
CCC12C=CCN3CCC4(C(=C(C(=O)OC)C1)Nc1ccccc14)[C@H]32 (stereo not given in full) | 93.6 | > 100 | > 100 | > 100 | > 100 | > 100 | > 100 | – | – | – | – | – | – | – | – | – | – | – | – | –
CC(=O)Nc1ccccc1S(=O)c1ccccc1 (stereo not given) | > 100 | > 100 | > 100 | > 100 | > 100 | > 100 | > 100 | > 100 | – | – | – | – | – | – | – | – | – | – | – | –
COc1ccc(CNC(=O)c2c(C)n([O-])c3cc(F)c(F)cc3[n+]2=O)cc1 | 10.6 | 35.5 | 23.6 | 3.43 | – | 30.6 | 26.9 | 32.7 | 2.38 | 15.7 | 10.4 | 1.77 | 16.9 | 17 | 31.6 | 13.7 | 18.2 | 5.72 | 19.3 | –
Nc1ncnc2c1ncn2COC/C=C/I | > 100 | > 100 | > 100 | – | > 100 | > 100 | > 100 | > 100 | – | – | – | – | – | – | – | – | – | – | – | –
C=C1CC(CC(=O)C(C)CC2CC(=C)C(=O)O2)OC1=O (stereo not given) | 35.8 | 22.6 | 30.7 | 36.7 | – | 35.1 | 30.5 | > 100 | – | – | – | – | – | – | – | – | – | – | – | –
COc1ccc(S(=O)(=O)N/N=C/CN2C(=O)c3ccccc3C2=O)cc1 | > 100 | > 100 | > 100 | > 100 | > 100 | > 100 | > 100 | > 100 | – | – | – | – | – | – | – | – | – | – | – | –
COc1ccc2c(c1)NC(=O)CN2c1nc(C)nc2ccccc12 | > 100 | > 100 | – | > 100 | > 100 | > 100 | > 100 | > 100 | 0.000458 | 0.000353 | – | 0.000413 | 0.000926 | – | – | – | 0.00069 | 0.000363 | > 100 | 0.000497
CCCCCC/C(CC(=O)CCC(=O)NCCc1ccccc1)=N\NC(=O)c1ccc2ccccc2c1O | > 100 | > 100 | > 100 | – | – | > 100 | > 100 | > 100 | – | – | – | – | – | – | – | – | – | – | – | –
ClCCCN1CCCCC1CCl (stereo not given) | > 100 | > 100 | – | > 100 | > 100 | > 100 | > 100 | > 100 | – | – | – | – | – | – | – | – | – | – | – | –
N#CC1([N+](=O)[O-])C=C1c1ccccc1 (stereo not given) | > 100 | > 100 | > 100 | > 100 | > 100 | > 100 | > 100 | > 100 | – | – | – | – | – | – | – | – | – | – | – | –
N#CCCn1c(CCC(=O)Nc2ccc(Cl)cc2Cl)n[nH]c1=S | > 100 | > 100 | > 100 | > 100 | > 100 | > 100 | > 100 | > 100 | – | – | – | – | – | – | – | – | – | – | – | –
NC(C(=O)O)c1ccc(C(=O)O)cc1 (stereo not given) | > 100 | > 100 | > 100 | > 100 | > 100 | > 100 | > 100 | > 100 | – | – | – | – | – | – | – | – | – | – | – | –
CC1=C(C(=O)NCc2ccccc2)C(c2ccccc2O)C(C(=O)NCc2ccccc2)=C(C)N1 | 34.1 | 31.5 | > 31.6 | 30.2 | 44.3 | 30.9 | 35.4 | 39.5 | – | – | – | – | – | – | – | – | – | – | – | –
CC(=O)CC(=O)ON(C)C(=O)Cc1ccccc1 | > 100 | > 100 | > 100 | > 100 | > 100 | > 100 | > 100 | > 100 | – | – | – | – | – | – | – | – | – | – | – | –
CCN(CC)c1ccc(N=C2C=CC(=C(C#N)C#N)c3ccccc32)c(C)c1 | 3.33 | – | 5.78 | 10.2 | 5.4 | 10.9 | 5.63 | 6.25 | – | – | – | – | – | – | – | – | – | – | – | –
CCCCCCC(=O)CC(=O)C(=O)Nc1ccccc1C | > 100 | > 100 | > 100 | > 66.3 | > 100 | > 100 | > 100 | > 100 | – | – | – | – | – | – | – | – | – | – | – | –
Cc1ccc(NC(=O)CC2C(=O)Nc3ccccc3S2(=O)=O)cc1C (stereo not given) | > 100 | – | > 100 | > 100 | > 100 | > 100 | > 100 | – | – | – | – | – | – | – | – | – | – | – | – | –
